In patent US20130253058A1, “SATIETY-INDUCING COMPOSITION” (DSM IP ASSETS B.V., priority 2009, published 2013):
Where two headings read alike, the source gives them in different places.

Details: 3.5 % lipids in yoghurt
Method: Analogous to example 2 four yoghurts with 3.5% fat (lipids) were followed during transit in the TNO intestinal Model (TIM).
The digestion process in the model was monitored for 5 hours. During the first 3 hours, the gastric content was gradually delivered into the small intestine via the Pyloric valve. At the end of the experiment, approximately 80% of the small intestine content was gradually delivered into the Large intestine via the Ileocecal valve.
Gastric secretions consisted of pepsin from porcine gastric mucosa (EC 3.4.23.1; Sigma-Aldrich Canada) and lipase (EC 3.1.1.3, from Rhizopus oryzae, Amano Pharmaceuticals, Japan), both dissolved in a Gastric Electrolyte Solution (GES: 3.1 g/l NaCl; 1.1 g/l KCl; 0.15 g/l CaCl2; 0.6 g/l NaHCO3). At the beginning of the experiment, a solution of trypsin from porcine pancreas (EC 3.4.21.4; Sigma-Aldrich Canada) was directly introduced into the duodenum. Also, porcine bile extract (supernatant of centrifuged, thawed bile from frozen, fresh collected porcine bile); pancreatic solution (Pancrex V powder; Paines and Byrne, UK), and intestine electrolyte solution (5.0 g/l NaCl; 0.6 g/l KCl; 0.3 g/l CaCl2 at pH 7.0) were delivered in the duodenal compartment.
Prior to testing the yoghurt containers were gently shaken to homogenise contents. At the beginning of each experiment, a 270 g amount of yoghurt was introduced into the gastric (i.e. stomach)—compartment of the TIM. At specific intervals samples were taken from different compartments of the gastro-intestinal tract (Gastric-; jejunum- and ileum lumen). A selection of fresh lumen samples were also directly visually studied by Bright Field microscope (Leica ATC2000 Binocular Microscope), equipped with a phase contrast mode.
The profile of the free fatty acid part of the lipid composition (FFA analysis) was determined by a method developed by the NIZO.
The free fatty acid level for all fatty acids in the ileum as well as the saturated fatty acid (FA) fraction C16:0 and C18:0 and higher in the ileum lumen were determined using FFA method as described above.

Total FFA levels in the ileum lumen (1 h): 171.5 g FFA/kg dry matter | saturated FFA (C16:0 + C18:0 + C20:0) based on total FFA in the ileum lumen (1 h): 91.4 w/w % | Total FFA levels in the ileum lumen (2 h): 348.3 g FFA/kg dry matter | saturated FFA (C16:0 + C18:0 + C20:0) based on total FFA in the ileum lumen (2 h): 96.6 w/w % | Total FFA levels in the ileum lumen (3 h): 504.8 g FFA/kg dry matter | saturated FFA (C16:0 + C18:0 + C20:0) based on total FFA in the ileum lumen (3 h): 97.8 w/w % | Total FFA levels in the ileum lumen (4 h): 461.6 g FFA/kg dry matter | saturated FFA (C16:0 + C18:0 + C20:0) based on total FFA in the ileum lumen (4 h): 97.5 w/w % | Total FFA levels in the ileum lumen (5 h): 466.2 g FFA/kg dry matter | saturated FFA (C16:0 + C18:0 + C20:0) based on total FFA in the ileum lumen (5 h): 97.6 w/w %
SMILES: CCCCCCCCCCCCCCCC(=O)O [Palmitic acid]
